# From ChEMBL document CHEMBL5338769, “Discovery of Norisoboldine Analogue III11 as a Novel and Potent Aryl Hydrocarbon Receptor Agonist for the Treatment of Ulcerative Colitis” (J Med Chem, 2023)
# Active and inactive are the calls of the source. The rule behind the calls is not given here.
# Assays:
# [1] = MRT in Sprague-Dawley rat at 30 mg/kg, po measured upto 1440 min by LC-MS/MS analysis; type: ADME, organism-based; conditions: in vivo
# Mus musculus [2] = test: Anti-colitis activity in DSS-induced ulcerative colitis C57BL/6 mouse model assessed as increase in CD4+CD25+Foxp3+ Treg cell ratio in mesenteric lymph nodes at 20 mg/kg, po administered once a day for 10 days by flow cytometric analysis (reference value: 4.5 %); type: functional; conditions: time 10 day
# Regulatory T cell [3] = test: Induction of cell differentiation in C57BL/6 mouse naive regulatory T cells assessed as increase in […] mRNA level at 3 uM incubated for 72 hrs by qRT-PCR analysis; type: functional, cell-based
# [4] = Cmax in Sprague-Dawley rat at 30 mg/kg, po measured at 120 min by LC-MS/MS analysis; type: ADME, organism-based; design: dose 30 mg/kg, time 120 min, route po; conditions: in vivo
# EL4 = test: Cytotoxicity against mouse EL4 cells assessed as inhibition of cell proliferation incubated for 72 hrs by MTT assay; type: functional, cell-based; conditions: EL4, 72 h
# [5] = Induction of cell differentiation in C57BL/6 mouse naive regulatory T cells assessed as increase in cell frequency at 1 uM incubated for 72 hrs by flow cytometric analysis (reference value: 24.9%); type: functional
# Regulatory T cell [6] = test: Induction of cell differentiation in C57BL/6 mouse naive regulatory T cells at 10 uM incubated for 72 hrs by flow cytometric analysis; type: functional, cell-based
# [7] = molecular target: T1, Aryl hydrocarbon receptor (Mus musculus, UniProt P30561); test: Activation of AhR transcription in C57BL/6 mouse naive T cells assessed as increase in CYP1A1 mRNA expression at 10 uM measured after 72 hrs by qRT-PCR analysis relative to control; type: cell-based; conditions: t cell
# T1 sequence (P30561 whole entry): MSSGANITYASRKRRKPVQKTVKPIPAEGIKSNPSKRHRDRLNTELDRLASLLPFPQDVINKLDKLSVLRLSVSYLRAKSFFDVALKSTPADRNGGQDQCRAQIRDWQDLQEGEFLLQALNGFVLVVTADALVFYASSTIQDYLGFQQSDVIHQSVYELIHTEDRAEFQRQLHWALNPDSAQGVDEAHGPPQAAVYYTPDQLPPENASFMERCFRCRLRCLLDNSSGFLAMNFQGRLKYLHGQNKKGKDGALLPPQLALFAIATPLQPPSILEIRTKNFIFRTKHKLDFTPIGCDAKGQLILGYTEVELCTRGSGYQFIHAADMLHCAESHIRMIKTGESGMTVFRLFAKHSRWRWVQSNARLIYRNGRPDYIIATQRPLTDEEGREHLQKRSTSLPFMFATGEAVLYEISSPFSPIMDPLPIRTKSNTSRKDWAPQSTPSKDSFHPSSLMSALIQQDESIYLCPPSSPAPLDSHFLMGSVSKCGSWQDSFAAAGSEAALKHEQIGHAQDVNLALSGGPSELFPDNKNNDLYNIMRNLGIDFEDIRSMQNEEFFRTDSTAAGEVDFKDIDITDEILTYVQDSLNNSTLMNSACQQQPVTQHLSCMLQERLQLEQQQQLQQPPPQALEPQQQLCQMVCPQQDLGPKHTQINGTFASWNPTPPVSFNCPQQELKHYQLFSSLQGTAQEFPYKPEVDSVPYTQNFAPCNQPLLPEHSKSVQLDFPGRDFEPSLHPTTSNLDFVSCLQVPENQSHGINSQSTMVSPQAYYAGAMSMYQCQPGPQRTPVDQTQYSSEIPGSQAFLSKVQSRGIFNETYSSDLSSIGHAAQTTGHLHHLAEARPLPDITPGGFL
# [8] = Oral bioavailability in Sprague-Dawley rat at 30 mg/kg measured upto 1440 min by LC-MS/MS analysis; type: ADME, organism-based; conditions: in vivo
# Mus musculus [9] = test: Anti-colitis activity in DSS-induced ulcerative colitis C57BL/6 mouse model assessed as CD4+CD25+Foxp3+ Treg cell percentage in spleen at 10 mg/kg, po administered once a day for 10 days by flow cytometric analysis (reference value: 3.3%); type: functional; conditions: time 10 day
# [10] = Apparent oral clearance in Sprague-Dawley rat at 30 mg/kg measured upto 1440 min by LC-MS/MS analysis; type: ADME, organism-based; conditions: in vivo, 24 h
# Mus musculus [11] = test: Anti-colitis activity in DSS-induced ulcerative colitis C57BL/6 mouse model assessed as increase in CD4+CD25+Foxp3+ Treg cell ratio in mesenteric lymph nodes at 10 mg/kg, po administered once a day for 10 days by flow cytometric analysis (reference value: 4.5 %); type: functional; conditions: time 10 day
# Mus musculus [12] = test: In vivo activation of AhR in C57BL/6 mouse assessed as increase in CYP1A1 mRNA expression at 10 to 20 mg/kg, po administered once a day for 10 days by qRT-PCR analysis; type: functional, organism-based; conditions: dose 10-20 mg/kg, time 10.0 day
# [13] = AUC(0 to infinity) in Sprague-Dawley rat at 3 mg/kg, iv measured upto 1440 min by LC-MS/MS analysis; type: ADME, organism-based; design: dose 3 mg/kg, time < 1440 min, route iv; conditions: in vivo
# [14] = Unbound drug concentration in rat plasma at 20.13 ug/ml of total concentration measured after 12 hrs by ultrafiltration based HPLC analysis; type: ADME, cell-free; conditions: dose 20.13 µg/ml
# [15] = Tmax in Sprague-Dawley rat at 30 mg/kg, po measured upto 1440 min by LC-MS/MS analysis; type: ADME, organism-based; conditions: in vivo
# [16] = molecular target: T1, Aryl hydrocarbon receptor; test: Activation of AhR transcription in C57BL/6 mouse naive T cells assessed as increase in CYP1A1 mRNA expression by measuring fold change at 10 uM measured after 72 hrs by qRT-PCR analysis relative to control; type: cell-based; conditions: T-cell, read-out: FC
# Mus musculus [17] = test: Anti-colitis activity in DSS-induced ulcerative colitis C57BL/6 mouse model assessed as CD4+CD25+Foxp3+ Treg cell percentage in spleen at 20 mg/kg, po administered once a day for 10 days by flow cytometric analysis (reference value: 3.3%); type: functional; conditions: time 10 day
# [18] = Apparent oral clearance in Sprague-Dawley rat at 3 mg/kg, iv measured upto 1440 min by LC-MS/MS analysis; type: ADME, organism-based; conditions: in vivo, 24 h
# [19] = Cmax in Sprague-Dawley rat at 3 mg/kg, iv measured at 120 min by LC-MS/MS analysis; type: ADME, organism-based; design: time 120 min, dose 3 mg/kg, route iv; conditions: in vivo
# [20] = Induction of cell differentiation in C57BL/6 mouse naive regulatory T cells assessed as increase in cell frequency at 3 uM incubated for 72 hrs by flow cytometric analysis (reference value: 24.9%); type: functional
# [21] = Half-life in Sprague-Dawley rat at 30 mg/kg, po measured upto 1440 min by LC-MS/MS analysis; type: ADME, organism-based; conditions: in vivo
# [22] = Unbound drug concentration in rat plasma at 10.67 ug/ml of total concentration measured after 12 hrs by ultrafiltration based HPLC analysis; type: ADME, cell-free; conditions: dose 10.67 µg/ml
# [23] = Induction of cell differentiation in C57BL/6 mouse naive regulatory T cells assessed as increase in cell frequency at 10 uM incubated for 72 hrs by flow cytometric analysis (reference value: 24.9%); type: functional
# [24] = Half-life in Sprague-Dawley rat at 3 mg/kg, iv measured upto 1440 min by LC-MS/MS analysis; type: ADME, organism-based; conditions: in vivo
# [25] = Protein binding in rat plasma at 10.67 ug/ml of total concentration measured after 12 hrs by ultrafiltration based HPLC analysis; type: ADME, cell-free; conditions: at 10.67 µg/mL, read-out: PPB (converted)
# [26] = MRT in Sprague-Dawley rat at 3 mg/kg, iv measured upto 1440 min by LC-MS/MS analysis; type: ADME, organism-based; conditions: in vivo
# [27] = AUC(0 to infinity) in Sprague-Dawley rat at 30 mg/kg, po measured upto 1440 min by LC-MS/MS analysis; type: ADME, organism-based; design: time < 1440 min, dose 30 mg/kg, route po; conditions: in vivo
# [28] = Induction of cell differentiation in C57BL/6 mouse naive regulatory T cells assessed as increase in cell frequency at 30 uM incubated for 72 hrs by flow cytometric analysis (reference value: 24.9%); type: functional
# Regulatory T cell [29] = test: Induction of cell differentiation in C57BL/6 mouse naive regulatory T cells assessed as increase in IL-10 mRNA level at 3 uM incubated for 72 hrs by qRT-PCR analysis; type: functional, cell-based
# [30] = Unbound drug concentration in rat plasma at 37.38 ug/ml of total concentration measured after 12 hrs by ultrafiltration based HPLC analysis; type: ADME, cell-free; conditions: dose 37.38 µg/ml
# [31] = molecular target: T1, Aryl hydrocarbon receptor; test: Activation of AhR transcription in C57BL/6 mouse naive T cells assessed as increase in CYP1A1 mRNA expression at 1 uM by qRT-PCR analysis; type: cell-based; conditions: t cell
# [32] = molecular target: T1, Aryl hydrocarbon receptor; test: Activation of AhR transcription in C57BL/6 mouse naive T cells assessed as increase in CYP1A1 mRNA expression at 1 to 3 uM measured after 72 hrs by qRT-PCR analysis; type: cell-based; conditions: t cell, dose 1-3 µM
# [33] = molecular target: T1, Aryl hydrocarbon receptor; test: Activation of AhR transcription in C57BL/6 mouse naive T cells assessed as increase in CYP1A1 mRNA expression at 1 to 3 uM by qRT-PCR analysis; type: cell-based; conditions: t cell, dose 1-3 µM
# [34] = molecular target: T1, Aryl hydrocarbon receptor; test: Activation of AhR transcription in C57BL/6 mouse naive T cells assessed as increase in UGT1A1 mRNA expression at 1 to 3 uM by qRT-PCR analysis; type: cell-based; conditions: t cell, dose 1-3 µM
# [35] = molecular target: T1, Aryl hydrocarbon receptor; test: Activation of AhR transcription in C57BL/6 mouse naive T cells assessed as increase in AhRR mRNA expression at 1 to 3 uM by qRT-PCR analysis; type: cell-based; conditions: t cell, dose 1-3 µM
# [36] = molecular target: T1, Aryl hydrocarbon receptor; test: Activation of AhR transcription in C57BL/6 mouse naive T cells assessed as increase in CYP1B1 mRNA expression at 1 to 3 uM by qRT-PCR analysis; type: cell-based; conditions: t cell, dose 1-3 µM
# [37] = molecular target: T1, Aryl hydrocarbon receptor; test: Activation of AhR transcription in C57BL/6 mouse naive T cells assessed as increase in CYP1A1 mRNA expression at 3 uM measured after 72 hrs by qRT-PCR analysis relative to control; type: cell-based; conditions: t cell
structure (smiles),measurement,setting,value
COc1cc2c(cc1O)CC1NCCc3cc(OC)c(O)c-2c31 (configuration not stated),MRT,[1],42.2 min
same,Activity,Mus musculus [2],6%
same,Activity,Regulatory T cell [3],inactive
same,Cmax,[4],34.1 ng/mL
same,IC50,EL4,80 µM
same,Activity,[5],25.4%
same,Activity,Regulatory T cell [6],Active
same,Activity,[7],208.3%
same,bioavailability,[8],2.49%
same,Activity,Mus musculus [9],3%
same,CL/F,[10],0.02 mg/(ng/ml)/min
same,Activity,Mus musculus [11],5.6%
same,Activity,Mus musculus [12],Active
same,AUC(0-inf),[13],112 ng·h/mL
same,Cp(f),[14],10020 ng/mL
same,Tmax,[15],16 min
same,fold induction at 10 µM,[16],2.1
same,Activity,Mus musculus [17],3.6%
same,CL/F,[18],0 mg/(ng/ml)/min
same,Cmax,[19],245 ng/mL
same,Activity,[20],26.6%
same,half-life,[21],23.3 min
same,Cp(f),[22],5200 ng/mL
same,Activity,[23],32%
same,half-life,[24],14.1 min
same,"fraction unbound at 12 h, 10.67 ug/ml",[25],0.488
same,MRT,[26],20.6 min
same,AUC(0-inf),[27],27.8 ng·h/mL
same,Activity,[28],37.8%
same,Activity,Regulatory T cell [29],inactive
same,Cp(f),[30],18360 ng/mL
COc1cc2c(cc1O)CC1c3c(cc(OC)c(O)c3-2)CCN1C(=O)OC(C)(C)C (configuration not stated),IC50,EL4,37 µM
same,Activity,[31],Active
COc1cc2c3c(c1)-c1ccc(OCc4ccccc4)cc1CC3N(C(=O)OCc1ccccc1)CC2 (configuration not stated),Activity,[32],Not Active
COc1cccc(CCN)c1,Activity,[32],Not Active
COc1cc2c(cc1O)-c1c(OC)c(OC)cc3c1C(C2)NCC3 (configuration not stated),Activity,[33],Not Active
same,IC50,EL4,36.9 µM
same,Activity,[34],Not Active
same,Activity,[35],Not Active
same,Activity,[36],Not Active
COc1cc2c3c(c1OC)-c1cc(O)ccc1CC3NCC2 (configuration not stated),Activity,[33],Not Active
same,IC50,EL4,25.9 µM
same,Activity,[34],Not Active
same,Activity,[35],Not Active
same,Activity,[36],Not Active
COc1ccc2c(c1)CC1NCCc3cc(OC)c(OC)c-2c31 (configuration not stated),IC50,EL4,10.8 µM
same,Activity,[37],152.7%
COc1cc2c(cc1O)CC1c3c(cc(O)c(OC)c3-2)CCN1C (configuration not stated),IC50,EL4,70.1 µM
same,Activity,[37],222%
COc1ccc2c(c1)-c1c(OC)c(OC)cc3c1C(C2)NCC3 (configuration not stated),IC50,EL4,20.7 µM
same,Activity,[37],177%
CO/C=C/c1cc(OCc2ccccc2)ccc1Br,Activity,[32],Not Active
